# Experimental data from paper PMC9995496, “A screen for MeCP2-TBL1 interaction inhibitors using a luminescence-based assay” (Scientific Reports, 2023).
# Structures can show the parent of a compound that is named as a salt. Where two headings read alike, the source gives them in different places. Peptide text beside a SMILES is read from it.
# Test system: PRKACA-PRKAR2A interaction (SmBiT-PRKACA / LgBiT-PRKAR2A), protein kinase A
# Parameters: NanoLuc complementation counter-screen in cell extract, PRKACA with PRKAR2A, loss of luminescence, detects NanoLuc interference
# Details: 0.5 h, 20 µM, inhibitor
# [1] = counter-screen for NanoLuc interference
# [2] = counter-screen for NanoLuc interference, Inh (PKA)
Structure (SMILES),Inh (PKA) [1],other results
"CC1(C)[C@@H](OC(=O)CCC(=O)O)CC[C@]2(C)[C@H]3C(=O)C=C4[C@@H]5C[C@@](C)(C(=O)O)CC[C@]5(C)CC[C@@]4(C)[C@]3(C)CC[C@@H]12 [UM0134288:02, Carbenoxolone disodium]",9.677%,
"C#C[C@]1(OC(C)=O)CC[C@H]2[C@@H]3CCC4=C[C@@H](OC(C)=O)CC[C@@H]4[C@H]3CC[C@@]21C [UM0134301:02, Ethynodiol diacetate]",16.1%,
"O=C(O)/C=C/c1ccc(Cn2ccnc2)cc1 [UM0134313:02, Ozagrel HCl]",,Inh (PKA) [2]: -0.66%
"CC1=C(CC(=O)O)c2cc(F)ccc2/C1=C\c1ccc([S+](C)[O-])cc1 (centres unmarked) [UM0134349:02, Sulindac]",3.185%,
"CN(C)c1ccc(/C=C2\C(=O)Nc3ccccc32)cc1 [UM0134350:02, SU 4312]",71.43%,
"COC[C@H]1OC(=O)c2coc3c2[C@@]1(C)C1=C(C3=O)[C@@H]2CCC(=O)[C@@]2(C)C[C@H]1OC(C)=O [UM0134355:02, Wortmannin]",31.91%,
"COc1ccc(/C=C/C(=O)Nc2ccccc2C(=O)O)cc1OC [UM0134356:02, Tranilast]",18.34%,
"COc1ccccc1N1CCN(CCN(C(=O)C2CCCCC2)c2ccccn2)CC1 [UM0134420:02, WAY-100635 maleate salt]",1.248%,
"Cc1cccc(C)c1NC1=NCCCS1 [UM0134421:02, Xylazine HCl]",,Inh (PKA): 1.103%
"C=CCn1c(=O)c2cnc(Nc3ccc(N4CCN(C)CC4)cc3)nc2n1-c1cccc(C(C)(C)O)n1 [UM0135452:02, MK-1775]",7.841%,
"CS(=O)(=O)c1ccc(-c2cnc(N)c(C(=O)Nc3ccccc3)n2)cc1 [UM0135461:02, VE-821]",11.31%,
"CNCc1ccc(-c2cc(-c3nc(-c4ccc(S(=O)(=O)C(C)C)cc4)cnc3N)on2)cc1 [UM0135462:02, VE-822]",14.15%,
"O=c1cc(N2CCOCC2)oc2c(-c3cccc4c3sc3ccccc34)cccc12 [UM0135467:02, NU7441 (KU-57788)]",24.55%,
"CC(C)(C#N)c1ccc(N2C(=O)OCc3cnc4ccc(-c5cnc6ccccc6c5)cc4c32)cc1 [UM0135469:02, ETP-46464]",11.28%,
"CNCc1ccc(-c2[nH]c3cc(F)cc4c3c2CCNC4=O)cc1 [UM0135471:02, Rucaparib (AG-014699,PF-01367338)]",,Inh (PKA) [2]: 3.125%
"O=C(c1cc(Cc2n[nH]c(=O)c3ccccc23)ccc1F)N1CCN(C(=O)C2CC2)CC1 [UM0135473:02, Olaparib (AZD2281, Ku-0059436)]",2.339%,
"CC(C)C[C@H](NC(=O)[C@H](Cc1ccccc1)NC(=O)c1cnccn1)B(O)O [UM0135483:03, Bortezomib (PS-341)]",1.59%,
"CO[C@H]1C[C@@H]2CC[C@@H](C)[C@@](O)(O2)C(=O)C(=O)N2CCCC[C@H]2C(=O)O[C@H]([C@H](C)C[C@@H]2CC[C@@H](OC(=O)C(C)(CO)CO)[C@H](OC)C2)CC(=O)[C@H](C)/C=C(\C)[C@@H](O)[C@@H](OC)C(=O)[C@H](C)C[C@H](C)/C=C/C=C/C=C/1C [UM0135484:03, Temsirolimus]",1.626%,
"Cn1cncc1[C@@](N)(c1ccc(Cl)cc1)c1ccc2c(c1)c(-c1cccc(Cl)c1)cc(=O)n2C [UM0135485:03, Tipifarnib (Zarnestra)]",47.09%,
"COc1cc(Nc2ncc3c(n2)-c2ccc(Cl)cc2C(c2c(F)cccc2OC)=NC3)ccc1C(=O)O [UM0135487:02, MLN8237 (Alisertib)]",50.43%,
"CS(=O)(=O)c1ccc(C(=O)Nc2ccc(Cl)c(-c3ccccn3)c2)c(Cl)c1 [UM0135488:02, GDC-0449 (Vismodegib)]",8.773%,
"CC1(C)CCC(CN2CCN(c3ccc(C(=O)NS(=O)(=O)c4ccc(NCC5CCOCC5)c([N+](=O)[O-])c4)c(Oc4cnc5[nH]ccc5c4)c3)CC2)=C(c2ccc(Cl)cc2)C1 [UM0135497:03, ABT-199]",28.89%,
"S=c1[nH]cnc2nc[nH]c12 [UM0135507:02, Mercaptopurine (6-MP)]",1.981%,
"Cn1nnc2c(C(N)=O)ncn2c1=O [UM0135509:03, Temozolomide]",1.163%,
"Cc1[nH]c2ccccc2c1CCNCc1ccc(/C=C/C(=O)NO)cc1 [UM0135511:02, Panobinostat (LBH589)]",3.589%,
"CN(C)CC[C@H](CSc1ccccc1)Nc1ccc(S(=O)(=O)NC(=O)c2ccc(N3CCN(Cc4ccccc4-c4ccc(Cl)cc4)CC3)cc2)cc1[N+](=O)[O-] [UM0136062:02, ABT-737]",17.72%,
"Cc1cnc(Nc2ccc(OCCN3CCCC3)cc2)nc1Nc1cccc(S(=O)(=O)NC(C)(C)C)c1 [UM0136753:02, TG101348 (SAR302503)]",24.97%,

Structure (SMILES),Inh (PKA) [1],other results
"Cc1cc(Nc2nc(N[C@@H](C)c3ncc(F)cn3)ncc2Cl)[nH]n1 [UM0136754:02, AZD1480]",15.63%,
"N#CCNC(=O)c1ccc(-c2ccnc(Nc3ccc(N4CCOCC4)cc3)n2)cc1 [UM0136756:02, CYT387]",3.804%,
"C/C(=C\C(=O)Nc1ccccc1C(=O)O)c1ccc2ccccc2c1 [UM0138522:02, BIBR 1532]",77.2%,
"CC1(COc2ccc3c(c2)ncn3-c2ccc3cccc(N4CCC(N)CC4)c3n2)COC1 [UM0139425:02, Crenolanib (CP-868596)]",13.43%,
"CCCCc1nc2cc(/C=C/C(=O)NO)ccc2n1CCN(CC)CC [UM0139427:02, Pracinostat (SB939)]",1.482%,
"Cc1sc2c(c1C)C(c1ccc(Cl)cc1)=N[C@@H](CC(=O)Nc1ccc(O)cc1)c1nnc(C)n1-2 [UM0139428:02, OTX-015]",,Inh (PKA): 7.269
"O=C1[C@H](Cc2ccc(O)cc2)N2C(=O)CCN(C(=O)NCc3ccccc3)[C@H]2CN1Cc1cccc2ccccc12 [UM0139430:02, ICG 001]",13.98%,
"N#Cc1ccnc(N2C(=O)CC[C@H]2C(=O)N(c2cncc(F)c2)[C@H](C(=O)NC2CC(F)(F)C2)c2ccccc2Cl)c1 [UM0139433:02, AG-120]",2.094%,
"CC(C)(O)CNc1nc(Nc2ccnc(C(F)(F)F)c2)nc(-c2cccc(C(F)(F)F)n2)n1 [UM0139434:02, AG-221 (Enasidenib)]",,Inh (PKA): 31.79
"CCOC(=O)c1sc(NC(=O)c2ccco2)c(SC#N)c1C [UM0139891:02, CBR-5884]",28.46%,
"NC(=O)Nc1cc(-c2cccc(F)c2)sc1C(=O)N[C@H]1CCCNC1 [UM0139975:02, AZD7762]",35.89%,
"C=CC(=O)N1C/C(=C\c2ccc([N+](=O)[O-])cc2)C(=O)/C(=C/c2ccc([N+](=O)[O-])cc2)C1 [UM0139980:02, NSC 687852 (b-AP15)]",14.65%,
"O=C(O)O [UM0141172:02, Lithium carbonate]",-3.585%,
"NCC(=O)NCC(=O)N[C@@H](Cc1ccc(O)cc1)C(=O)N[C@@H](CCCN=C(N)N)C(=O)O [UM0141375:01, Papain Inhibitor] (H-GGYR-OH)",1.556%,
"Cn1cc(-c2ccc3nnc(Sc4ccc5ncccc5c4)n3n2)cn1 [UM0141386:01, SGX-523]",2.769%,
"CCCCCCCCCC(=O)N[C@@H](Cc1c[nH]c2ccccc12)C(=O)N[C@H](CC(N)=O)C(=O)N[C@@H](CC(=O)O)C(=O)N[C@@H]1C(=O)NCC(=O)N[C@@H](CCCN)C(=O)N[C@@H](CC(=O)O)C(=O)N[C@H](C)C(=O)N[C@@H](CC(=O)O)C(=O)NCC(=O)N[C@H](CO)C(=O)N[C@@H]([C@H](C)CC(=O)O)C(=O)N[C@@H](CC(=O)c2ccccc2N)C(=O)O[C@@H]1C [UM0141387:01, Daptomycin]",0.4906%,
"C=C1C[C@@H]2[C@H](CC[C@]3(C)C(=O)CC[C@@H]23)[C@@]2(C)C=CC(=O)C=C12 [UM0141388:01, Exemestane]",1.515%,
"CCc1cc(Nc2nccc(-c3c(-c4ccc(OC)c(C(=O)Nc5c(F)cccc5F)c4)nc4ccccn34)n2)c(OC)cc1N1CCC(N2CCN(S(C)(=O)=O)CC2)CC1 [UM0141389:01, GSK1904529A]",3.167%,
"N#Cc1ccc(C(c2ccc(C#N)cc2)n2cncn2)cc1 [UM0141390:01, Letrozole]",1.331%,
"CCOc1cc(N)c(Cl)cc1C(=O)NCC1CN(Cc2ccc(F)cc2)CCO1 (centres unmarked) [UM0141391:01, Mosapride Citrate]",13.81%,
"C=CC[N+]1([C@H]2C[C@H]3[C@@H]4CC[C@H]5C[C@H](O)[C@@H](N6CCOCC6)C[C@]5(C)[C@H]4CC[C@]3(C)[C@H]2OC(C)=O)CCCC1 [UM0141392:01, Rocuronium Bromide]",2.002%,
"COc1cc(N2CCC(N3CCN(C)CC3)CC2)ccc1Nc1ncc(Cl)c(Nc2ccccc2P(C)(C)=O)n1 [UM0141393:01, AP26113]",6.926%,
"C[C@@H](O)[C@H]1C(=O)N2C(C(=O)[O-])=C(SC3Cn4cnc[n+]4C3)[C@H](C)[C@H]12 (some centres unmarked) [UM0141395:01, Biapenem]",2.946%,
"C=CC(=O)Nc1cccc(Oc2nc(Nc3ccc(N4CCN(C)CC4)cc3OC)ncc2Cl)c1 [UM0141397:01, WZ4002]",30.48%,
"C=CC(=O)Nc1cccc(Sc2nc(Nc3ccc(N4CCN(C)CC4)cc3)ncc2Cl)c1 [UM0141398:01, WZ8040]",37.33%,
"Nc1ccn([C@@H]2O[C@H](CO)[C@@H](O)C2(F)F)c(=O)n1 [UM0141399:01, Gemcitabine HCl]",,Inh (PKA) [2]: 0.8082%
